Patent US20120029187A1, “HALOALKYLSULFONANILIDE DERIVATIVE” (Nissan Chemical Industries, Ltd., priority 2009, published 2012)

What was measured:
Assay type in all cases: in vivo
barnyardgrass [1] = test: Test Example 1: herbicidal effects in preemergence treatment under submerged conditions; conditions: dose 2.52 g/a
Outline: (§1)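 Submerged conditions, 4 cm water over alluvial soil. Weeds sown and 2.5-leaf rice transplanted; compound applied preemergence to water surface, doses in g per are. Greenhouse, 25 to 30° C., three weeks, then 0–5 mortality rating.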

bulrush [2] = test: as above; conditions: dose 2.52 g/a
Outline: as §1

ducksalad [3] = test: as above; conditions: dose 2.52 g/a
Outline: as §1

transplanted rice = test: Test Example 1: preemergence treatment under submerged conditions, effect on crop; conditions: dose 2.52 g/a
Outline: as §1

barnyardgrass [4] = test: Test Example 2: herbicidal effects during the vegetation period under submerged conditions; conditions: treatment during the vegetation period under submerged conditions; dose 2.52 g/a
Outline: (§2)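 Barnyardgrass, bulrush and ducksalad were co-sown in alluvial soil flooded to 4 cm and grown in a greenhouse at 25 to 30° C. At the 1- or 2-leaf stage, water-diluted emulsifiable concentrates went onto the water surface at set doses (g/a). Herbicidal effect was scored three weeks later on a graded scale.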

bulrush [5] = test: as above; conditions: treatment during the vegetation period under submerged conditions; dose 2.52 g/a
Outline: as §2

ducksalad [6] = test: as above; conditions: treatment during the vegetation period under submerged conditions; dose 2.52 g/a
Outline: as §2

Italian ryegrass [7] = test: Test Example 3: herbicidal effects in soil treatment; conditions: dose 3.2 g/a
Outline: (§3)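 Seeds were sown in sterilized diluvial soil and covered with about 1.5 cm of soil. Compounds, formulated as emulsifiable concentrates and diluted with water, were sprayed evenly over the soil surface at set doses in g/a. Herbicidal effect was scored on a rating scale three weeks later.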

barnyardgrass [8] = test: as above; conditions: dose 3.2 g/a
Outline: as §3

beadstraw [9] = test: as above; conditions: dose 3.2 g/a
Outline: as §3

common chickweed [10] = test: as above; conditions: dose 3.2 g/a
Outline: as §3

common lambsquater [11] = test: as above; conditions: dose 3.2 g/a
Outline: as §3

common ragweed [12] = test: as above; conditions: dose 3.2 g/a
Outline: as §3

giant foxtail [13] = test: as above; conditions: dose 3.2 g/a
Outline: as §3

large crabgrass [14] = test: as above; conditions: dose 3.2 g/a
Outline: as §3

posumbu knotweed [15] = test: as above; conditions: dose 3.2 g/a
Outline: as §3

redroot pigweed [16] = test: as above; conditions: dose 3.2 g/a
Outline: as §3

velvetleaf [17] = test: as above; conditions: dose 3.2 g/a
Outline: as §3

water foxtail [18] = test: as above; conditions: dose 3.2 g/a
Outline: as §3

wild oat [19] = test: as above; conditions: dose 3.2 g/a
Outline: as §3

Italian ryegrass [20] = test: Test Example 4: herbicidal effect in foliage treatment; conditions: dose 3.2 g/a, three weeks after the application
Outline: (§4)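 Herbicidal effect was rated on an evaluation scale three weeks after treatment. Plants had been raised 14 days at 25 to 30° C in sterilized diluvial soil, then received foliar sprays of emulsifiable concentrate diluted in water at predetermined doses expressed as g per are.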

barnyardgrass [21] = test: as above; conditions: dose 3.2 g/a, three weeks after the application
Outline: as §4

beadstraw [22] = test: as above; conditions: dose 3.2 g/a, three weeks after the application
Outline: as §4

common chickweed [23] = test: as above; conditions: dose 3.2 g/a, three weeks after the application
Outline: as §4

common lambsquater [24] = test: as above; conditions: dose 3.2 g/a, three weeks after the application
Outline: as §4

common ragweed [25] = test: as above; conditions: dose 3.2 g/a, three weeks after the application
Outline: as §4

giant foxtail [26] = test: as above; conditions: dose 3.2 g/a, three weeks after the application
Outline: as §4

large crabgrass [27] = test: as above; conditions: dose 3.2 g/a, three weeks after the application
Outline: as §4

posumbu knotweed [28] = test: as above; conditions: dose 3.2 g/a, three weeks after the application
Outline: as §4

redroot pigweed [29] = test: as above; conditions: dose 3.2 g/a, three weeks after the application
Outline: as §4

velvetleaf [30] = test: as above; conditions: dose 3.2 g/a, three weeks after the application
Outline: as §4

water foxtail [31] = test: as above; conditions: dose 3.2 g/a, three weeks after the application
Outline: as §4

wild oat [32] = test: as above; conditions: dose 3.2 g/a, three weeks after the application
Outline: as §4

O=C1CCSCN1Cc1ccccc1NS(=O)(=O)C(F)(F)F [II-78]
A: barnyardgrass, herbicidal effect (evaluation scale 0-5) (barnyardgrass [1]): 5 (mortality of 90% or above (nearly complete death))
B: bulrush, herbicidal effect (evaluation scale 0-5) (bulrush [2]): 5 (mortality of 90% or above (nearly complete death))
C: ducksalad, herbicidal effect (evaluation scale 0-5) (ducksalad [3]): 5 (mortality of 90% or above (nearly complete death))
a: transplanted rice, effect on crop (evaluation scale 0-5) (transplanted rice): 0 (mortality of less than 5% (almost ineffective))
A: barnyardgrass, herbicidal effect (evaluation scale 0-5) (barnyardgrass [4]): 5 (mortality of 90% or above (nearly complete death))
B: bulrush, herbicidal effect (evaluation scale 0-5) (bulrush [5]): 5 (mortality of 90% or above (nearly complete death))
C: ducksalad, herbicidal effect (evaluation scale 0-5) (ducksalad [6]): 5 (mortality of 90% or above (nearly complete death))
herbicidal effect, H: Italian ryegrass (Italian ryegrass [7]): 5 (mortality of 90% or above (nearly complete death))
herbicidal effect, A: barnyardgrass (barnyardgrass [8]): 5 (mortality of 90% or above (nearly complete death))
herbicidal effect, O: beadstraw (beadstraw [9]): 0 (mortality of less than 5% (almost ineffective))
herbicidal effect, N: common chickweed (common chickweed [10]): 5 (mortality of 90% or above (nearly complete death))
herbicidal effect, L: common lambsquater (common lambsquater [11]): 4 (mortality of at least 70% and less than 90%)
herbicidal effect, J: common ragweed (common ragweed [12]): 4 (mortality of at least 70% and less than 90%)
herbicidal effect, E: giant foxtail (giant foxtail [13]): 5 (mortality of 90% or above (nearly complete death))
herbicidal effect, D: large crabgrass (large crabgrass [14]): 5 (mortality of 90% or above (nearly complete death))
herbicidal effect, M: posumbu knotweed (posumbu knotweed [15]): 4 (mortality of at least 70% and less than 90%)
herbicidal effect, K: redroot pigweed (redroot pigweed [16]): 3 (mortality of at least 40% and less than 70%)
herbicidal effect, I: velvetleaf (velvetleaf [17]): 5 (mortality of 90% or above (nearly complete death))
herbicidal effect, G: water foxtail (water foxtail [18]): 5 (mortality of 90% or above (nearly complete death))
herbicidal effect, F: wild oat (wild oat [19]): 0 (mortality of less than 5% (almost ineffective))
H: Italian ryegrass, herbicidal effect (Italian ryegrass [20]): 5 (mortality of 90% or above (nearly complete death))
A: barnyardgrass, herbicidal effect (barnyardgrass [21]): 4 (mortality of at least 70% and less than 90%)
O: beadstraw, herbicidal effect (beadstraw [22]): 5 (mortality of 90% or above (nearly complete death))
N: common chickweed, herbicidal effect (common chickweed [23]): 4 (mortality of at least 70% and less than 90%)
L: common lambsquater, herbicidal effect (common lambsquater [24]): 4 (mortality of at least 70% and less than 90%)
J: common ragweed, herbicidal effect (common ragweed [25]): 4 (mortality of at least 70% and less than 90%)
E: giant foxtail, herbicidal effect (giant foxtail [26]): 4 (mortality of at least 70% and less than 90%)
D: large crabgrass, herbicidal effect (large crabgrass [27]): 4 (mortality of at least 70% and less than 90%)
M: posumbu knotweed, herbicidal effect (posumbu knotweed [28]): 4 (mortality of at least 70% and less than 90%)
K: redroot pigweed, herbicidal effect (redroot pigweed [29]): 4 (mortality of at least 70% and less than 90%)
I: velvetleaf, herbicidal effect (velvetleaf [30]): 5 (mortality of 90% or above (nearly complete death))
G: water foxtail, herbicidal effect (water foxtail [31]): 5 (mortality of 90% or above (nearly complete death))
F: wild oat, herbicidal effect (wild oat [32]): 0 (mortality of less than 5% (almost ineffective))
